Measured values published in paper PMC7918738, “Microtubule Destabilizing Sulfonamides as an Alternative to Taxane-Based Chemotherapy” (International Journal of Molecular Sciences, 2021).
≈ marks a conversion by molar mass, not a printed value.

Assays:
[1] = test system: HT-29 (colon adenocarcinoma); assay: Antiproliferative activity against CA-4-resistant HT-29 with or without verapamil (sensitivity to MDR pumps, XTT); type: cell-based, human; details: for IC50: Homo sapiens, HT-29, 72 h, XTT, without verapamil, read-out: Antiproliferative Activity IC50 HT-29; for Difference between pairs of HT-29 IC50 values in the presence or absence of verapamil: 10 µM verapamil, up to two-fold change counted as not significant
Text: Detecting changes in drug potency when inhibiting MDR-mediated efflux reflect that these transporters reduce the intracellular drug concentration. HT-29 has been reported to express moderate levels of MDR1, accounting for a resistant phenotype. A comparison of the antiproliferative IC50 values of each MDS in the presence or absence of verapamil provides an estimate of the susceptibility of each compound to efflux pumps.
(§1) MCF7 (human breast carcinoma), SKOV-3 (human ovarian carcinoma), OVCAR-3 (human ovarian carcinoma), OVCAR-8 (human ovarian carcinoma), and HeLa (human cervical carcinoma) cell lines were cultured in Dulbecco’s Modified Eagle’s Medium (DMEM) (Gibco, Thermo Fischer Scientific) containing 10% (v/v) heat-inactivated fetal bovine serum (HIFBS) (Lonza-Cambrex, Karlskoga, Sweden), 2 mM L-glutamine (Lonza-Cambrex, Karlskoga, Sweden), 100 μg/mL streptomycin, and 100 IU/mL penicillin (Lonza-Cambrex) at 37 °C in humidified 95% air and 5% CO2. HT-29 (human colon carcinoma), IGROV-1 (human ovarian carcinoma), and A2780 (human ovarian carcinoma) cell lines were cultured in RPMI 1640 medium (Gibco, Thermo Fischer Scientific) supplemented with 10% HIFBS, 100 μg/mL streptomycin, and 100 IU/mL penicillin at 37 °C in humidified 95% air and 5% CO2 atmosphere. The presence of mycoplasma was routinely checked with MycoAlert kit (Lonza-Cambrex) and only mycoplasma-free cells were used in the experiments. Ovarian tumor cell lines were originally acquired from Dr Atanasio Pandiella from Centro de Investigación del Cáncer (CIC), Salamanca, Spain. HeLa, HT-29 and MCF7 tumor cell lines were provided by Dr Faustino Mollinedo from Centro de Investigaciones Biológicas Margarita Salas, Madrid, Spain.
MCF7, HeLa, and HT-29 cell proliferation, when treated with the corresponding compounds, were determined using the XTT (sodium 3’-[1(phenylaminocarbonyl)-3,4-tetrazolium]-bis(4-methoxy-6-nitro)-benzenesulfonic acid hydrate) cell proliferation kit (Roche Molecular Biochemicals, Mannheim, Germany). A freshly prepared mixture of XTT labeling reagent with 0.02% (v/v) PMS (N-methyl-dibenzopyrazine methyl sulfate) electron coupling reagent was added to cells (50 µL/well in 96-well plates, total volume of 160 µL/well). Cells were incubated under standard culture conditions for 4 h (MCF7 and HeLa) or 6 h (HT-29). The absorbance of the formazan product generated was measured at 450 nm using a multi-well plate reader. SKOV-3, OVCAR-3, OVCAR-8, IGROV-1, A-2780 cell proliferation, when treated with the corresponding compound, were determined using MTT (3-(4,5-dimethylthiazol-2-yl)-2,5-diphenyl-2H-tetrazolium bromide) (Sigma-Aldrich, St. Louis, MO, USA). MTT in Phosphate Buffer Saline (PBS) (5 mg/ml) was added to cells (110 µL/well in 24-well plates, total volume of 1110 µL/well). After 1 hour of incubation, the medium was aspirated, and formazan violet crystals were dissolved in dimethyl sulfoxide (DMSO) (500 µL/well). Absorbance was measured at 570 nm in a plate reader (Ultra Evolution, Tecan, Männedorf, Suiza). To determine cell viability, cells in exponential growth phase were seeded (100 µL/well in 96-well plates and 1000 µL/well in 24-well plates) with appropriate cell line concentration (1.5·10^4 cells/mL for MCF7 and HeLa, 3·10^4 cells/mL for HT-29, and 1·10^4 cells/mL for SKOV-3, OVCAR-3, OVCAR-8, IGROV-1, and A-2780) in complete RPMI 1640 or DMEM medium at 37°C and 5% CO2 atmosphere. After 24 h incubation, to allow cells to attach to the plates, all compounds were added at 1 µM concentration and the effect on the proliferation was evaluated 72 h post-treatment. […] Non-linear curves fitting the experimental data were carried out for each compound. Compounds were dissolved in DMSO and the final solvent concentrations never exceeded 0.5% (v/v). The control wells included […] with 0.5% (v/v) DMSO and the positive control. 10 µM verapamil was included as a control for the HT-29 cell line.

[2] = Aqueous solubility, saturation shake-flask method, UV absorbance; details: phosphate buffer, pH 7, aqueous buffer, thermodynamic from solid
Experimental: UV absorbance at three maximum absorbance wavelengths of selected compounds was measured after 48 h shaking and subsequent microfiltration.
The aqueous solubility of the sulfonamides was determined using an approach based on the saturation shake-flask method. Tested compounds (1–2 mg) were stirred in pH 7.0 phosphate buffer (300 µL) for 48 h at room temperature. The resulting suspension was filtered over a 45 µm filter to discard insoluble residues, and the concentration in the supernatant was measured by UV absorbance. To determine the concentration, a scan between 270 and 400 nm was performed in a Helios-α UV-320 Spectrophotometer (Thermo-Spectronic, Thermo Fischer Scientific, Waltham, MA, USA) for each tested compound. Then, three maximum wavelengths of absorbance per compound were selected from the previous scan and calibration curves were performed at these three wavelengths. Solubility results are given as the average of the three measurements.

[3] = test system: MCF7 (breast adenocarcinoma); assay: Antiproliferative activity against MCF7 (XTT colorimetric method); type: cell-based; details: Homo sapiens, 72 h treatment
Experimental: The in vitro antiproliferative activity of MDS at 1 µM after 72 h treatments was evaluated by a colorimetric method against the human tumor cell lines HeLa (cervix epithelioid carcinoma) and MCF7 (breast adenocarcinoma). Compounds showing more than 40% inhibition at 1 µM in at least three independent assays were evaluated in a range of concentrations between 0.1 nM and 10 µM for the determination of half-maximal inhibitory concentrations (IC50) (Table 1). Paclitaxel, CA-4, and ABT-751 were used as references.
as §1
MCF7, HeLa, and HT-29 cell proliferation, when treated with the corresponding compounds, were determined using the XTT (sodium 3’-[1(phenylaminocarbonyl)-3,4-tetrazolium]-bis(4-methoxy-6-nitro)-benzenesulfonic acid hydrate) cell proliferation kit (Roche Molecular Biochemicals, Mannheim, Germany). A freshly prepared mixture of XTT labeling reagent with 0.02% (v/v) PMS (N-methyl-dibenzopyrazine methyl sulfate) electron coupling reagent was added to cells (50 µL/well in 96-well plates, total volume of 160 µL/well). Cells were incubated under standard culture conditions for 4 h (MCF7 and HeLa) or 6 h (HT-29). The absorbance of the formazan product generated was measured at 450 nm using a multi-well plate reader. SKOV-3, OVCAR-3, OVCAR-8, IGROV-1, A-2780 cell proliferation, when treated with the corresponding compound, were determined using MTT (3-(4,5-dimethylthiazol-2-yl)-2,5-diphenyl-2H-tetrazolium bromide) (Sigma-Aldrich, St. Louis, MO, USA). MTT in Phosphate Buffer Saline (PBS) (5 mg/ml) was added to cells (110 µL/well in 24-well plates, total volume of 1110 µL/well). After 1 hour of incubation, the medium was aspirated, and formazan violet crystals were dissolved in dimethyl sulfoxide (DMSO) (500 µL/well). Absorbance was measured at 570 nm in a plate reader (Ultra Evolution, Tecan, Männedorf, Suiza). To determine cell viability, cells in exponential growth phase were seeded (100 µL/well in 96-well plates and 1000 µL/well in 24-well plates) with appropriate cell line concentration (1.5·10^4 cells/mL for MCF7 and HeLa, 3·10^4 cells/mL for HT-29, and 1·10^4 cells/mL for SKOV-3, OVCAR-3, OVCAR-8, IGROV-1, and A-2780) in complete RPMI 1640 or DMEM medium at 37°C and 5% CO2 atmosphere. After 24 h incubation, to allow cells to attach to the plates, all compounds were added at 1 µM concentration and the effect on the proliferation was evaluated 72 h post-treatment. Compounds showing antiproliferative effects at tested concentration were selected for IC50 calculation (50% inhibitory concentration with respect to the untreated controls) from 10^−5 to 10^−10 M concentration. Non-linear curves fitting the experimental data were carried out for each compound. […]

| Compound | IC50 [1] | solubility at 48 h [2] | IC50 [3] | melting point | Difference between pairs of HT-29 IC50 values in the presence or absence of verapamil [1] |
| --- | --- | --- | --- | --- | --- |
| COc1ccc(S(=O)(=O)Nc2cc(OC)c(OC)c(OC)c2)cc1 [Compound 1a] | 897 nM | 83 µg/mL (≈ 235 µM) | 375 nM | 115 to 116 °C |  |
| COc1ccc(S(=O)(=O)N(C)c2cc(OC)c(OC)c(OC)c2)cc1 [Compound 2a] | 143 nM | 27 µg/mL (≈ 73.5 µM) | 127 nM | 123 to 124 °C |  |
| CCN(c1cc(OC)c(OC)c(OC)c1)S(=O)(=O)c1ccc(OC)cc1 [Compound 3] | 913 nM | 30 µg/mL (≈ 78.6 µM) | 87 nM | 140 to 143 °C |  |
| COc1ccc(S(=O)(=O)N(C(C)=O)c2cc(OC)c(OC)c(OC)c2)cc1 [Compound 5] | 747 nM | 38 µg/mL (≈ 96.1 µM) | 270 nM | 190 to 195 °C |  |
| CCOC(=O)CN(c1cc(OC)c(OC)c(OC)c1)S(=O)(=O)c1ccc(OC)cc1 [Compound 7] | 237 nM |  | 335 nM | 123 to 127 °C |  |
| COc1ccc(S(=O)(=O)N(CC(=O)O)c2cc(OC)c(OC)c(OC)c2)cc1 [Compound 8] | > 1000 nM |  | > 1000 nM | 151 to 158 °C |  |
| COc1ccc(S(=O)(=O)N(C)c2cc(OC)c(OC)c(OC)c2NC(C)=O)cc1 [Compound 16] | > 1000 nM |  | > 1000 nM | 205 to 210 °C |  |
| COc1cc(NS(=O)(=O)c2ccc([N+](=O)[O-])cc2)cc(OC)c1OC [Compound 25] | > 1000 nM |  | > 1000 nM | 138 to 140 °C |  |
| COc1cc(NS(=O)(=O)c2ccc(N)cc2)cc(OC)c1OC [Compound 26] | > 1000 nM | 28 µg/mL (≈ 82.7 µM) | > 1000 nM | 177 to 179 °C |  |
| COc1cc(N(C)S(=O)(=O)c2ccc(N(C)C)cc2)cc(OC)c1OC [Compound 29a] | 103 nM | 7 µg/mL (≈ 18.4 µM) | 30 nM | 134 to 140 °C |  |

More lines, now with the values ahead:

| IC50 [1] | solubility at 48 h [2] | IC50 [3] | melting point | Difference between pairs of HT-29 IC50 values in the presence or absence of verapamil [1] | Compound |
| --- | --- | --- | --- | --- | --- |
| > 1000 nM |  | > 1000 nM | 168 to 170 °C |  | COc1cc(N(CC(=O)O)S(=O)(=O)c2ccc(N(C)C)cc2)cc(OC)c1OC [Compound 34] |
| 807 nM | 43 µg/mL (≈ 122 µM) | > 1000 nM | 200 to 206 °C |  | CNc1ccc(S(=O)(=O)Nc2cc(OC)c(OC)c(OC)c2)cc1 [Compound 37] |
| 59 nM | 16 µg/mL (≈ 43.7 µM) | 61 nM |  | no significant differences | CNc1ccc(S(=O)(=O)N(C)c2cc(OC)c(OC)c(OC)c2)cc1 [Compound 38] |
| 277 nM | 89 µg/mL (≈ 242 µM) | 96 nM |  |  | COc1ccc(S(=O)(=O)Nc2cc(OC)c(OC)c(OC)c2)cc1N [Compound 41] |
| 81 nM | 108 µg/mL (≈ 282 µM) | 26 nM |  | no significant differences | COc1ccc(S(=O)(=O)N(C)c2cc(OC)c(OC)c(OC)c2)cc1N [Compound 42] |
| 63 nM | 58 µg/mL (≈ 146 µM) | 14 nM |  |  | CCN(c1cc(OC)c(OC)c(OC)c1)S(=O)(=O)c1ccc(OC)c(N)c1 [Compound 43] |
| 61 nM | 46 µg/mL (≈ 113 µM) | 8 nM | 139 to 145 °C |  | COc1ccc(S(=O)(=O)N(CC#N)c2cc(OC)c(OC)c(OC)c2)cc1N [Compound 44] |
| 300 nM | 14 µg/mL (≈ 30.5 µM) | 48 nM |  | no significant differences | COc1ccc(S(=O)(=O)N(Cc2ccccc2)c2cc(OC)c(OC)c(OC)c2)cc1N [Compound 45] |
